Test system: 997726-040-R-J2-PDC tumor spheroids, viability
Assay: Anticancer human tumor 997726-040-R-J2-PDC patient-derived squamous cell lung carcinoma cell line growth inhibition [PI3K]
Conditions: spheroids with HUVEC and MSC; for IC50: curve of first compound; for viability, T/C: stronger effect = lower value
Outline: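 We assembled tumor spheroids that included a stromal compartment of HUVEC and MSCs, then exposed them to targeted agents alone and together with PI3K pathway inhibitors. Concentration series descended by half-log from clinically achievable Cmax levels. Viability served as the endpoint.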

[1] = second compound 0.0316 µM, first compound 0.0316 µM
[2] = second compound 0.0316 µM, first compound 0.1 µM
[3] = second compound 0.0316 µM, first compound 0.316 µM
[4] = second compound 0.0316 µM, first compound 1 µM
[5] = second compound 0.0316 µM, first compound 3.16 µM
[6] = second compound 0.0316 µM, first compound 10 µM
[7] = second compound 0.1 µM, first compound 0.0316 µM
[8] = second compound 0.1 µM, first compound 0.1 µM
[9] = second compound 0.1 µM, first compound 0.316 µM
[10] = second compound 0.1 µM, first compound 1 µM
[11] = second compound 0.1 µM, first compound 3.16 µM
[12] = second compound 0.1 µM, first compound 10 µM
[13] = second compound 0.316 µM, first compound 0.0316 µM
[14] = second compound 0.316 µM, first compound 0.1 µM
[15] = second compound 0.316 µM, first compound 0.316 µM
[16] = second compound 0.316 µM, first compound 1 µM
[17] = second compound 0.316 µM, first compound 3.16 µM
[18] = second compound 0.316 µM, first compound 10 µM
[19] = second compound 1 µM, first compound 0.0316 µM
[20] = second compound 1 µM, first compound 0.1 µM
[21] = second compound 1 µM, first compound 0.316 µM
[22] = second compound 1 µM, first compound 1 µM
[23] = second compound 1 µM, first compound 3.16 µM
[24] = second compound 1 µM, first compound 10 µM
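Also: spheroids exposed to compounds for seven days before readout.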

SMILES: CC1(C)CCC(CN2CCN(c3ccc(C(=O)NS(=O)(=O)c4ccc(NCC5CCOCC5)c([N+](=O)[O-])c4)c(Oc4cnc5[nH]ccc5c4)c3)CC2)=C(c2ccc(Cl)cc2)C1 + CC(Nc1ncnc2nc[nH]c12)c1cc2cccc(Cl)c2c(=O)n1-c1ccccc1
- IC50 (second compound 0.0316 µM): > 10 µM
- IC50 (second compound 0.1 µM): 9.87 µM
- IC50 (second compound 0.316 µM): 9.36 µM
- IC50 (second compound 1 µM): > 10 µM
- IC50 (second compound 3.16 µM): 6.26 µM
- IC50 (second compound 10 µM): 3.37 µM
- viability, T/C [1]: 101%
- viability, T/C [2]: 87.9%
- viability, T/C [3]: 93.4%
- viability, T/C [4]: 102%
- viability, T/C [5]: 104%
- viability, T/C [6]: 52.2%
- viability, T/C [7]: 102%
- viability, T/C [8]: 94%
- viability, T/C [9]: 109%
- viability, T/C [10]: 105%
- viability, T/C [11]: 98.6%
- viability, T/C [12]: 49.4%
- viability, T/C [13]: 97.1%
- viability, T/C [14]: 95.4%
- viability, T/C [15]: 103%
- viability, T/C [16]: 93.5%
- viability, T/C [17]: 91.7%
- viability, T/C [18]: 47.2%
- viability, T/C [19]: 94.3%
- viability, T/C [20]: 85.7%
- viability, T/C [21]: 92%
- viability, T/C [22]: 80.6%
- viability, T/C [23]: 89.9%
- viability, T/C [24]: 51%
- viability, T/C (second compound 3.16 µM, first compound 0.0316 µM): 73.1%
- viability, T/C (second compound 3.16 µM, first compound 0.1 µM): 74.5%
- viability, T/C (second compound 3.16 µM, first compound 0.316 µM): 73%
- viability, T/C (second compound 3.16 µM, first compound 1 µM): 72.4%
- viability, T/C (second compound 3.16 µM, first compound 3.16 µM): 71.9%
- viability, T/C (second compound 3.16 µM, first compound 10 µM): 35.1%
- viability, T/C (second compound 10 µM, first compound 0.0316 µM): 55.7%
- viability, T/C (second compound 10 µM, first compound 0.1 µM): 56.4%
- viability, T/C (second compound 10 µM, first compound 0.316 µM): 48.3%
- viability, T/C (second compound 10 µM, first compound 1 µM): 53.8%
- viability, T/C (second compound 10 µM, first compound 3.16 µM): 51.2%
- viability, T/C (second compound 10 µM, first compound 10 µM): 29.4%

SMILES: CC(Cn1ccc(-c2ccc(C#N)c(Cl)c2)n1)NC(=O)c1cc(C(C)O)[nH]n1 (centres undefined) + COc1c(OCCCN2CCOCC2)ccc2c3n(c(=NC(=O)c4cnc(N)nc4)nc12)CCN3
- IC50 (second compound 0.00316 µM): > 10 µM
- IC50 (second compound 0.01 µM): > 10 µM
- IC50 (second compound 0.0316 µM): < 0.0316 µM
- IC50 (second compound 0.1 µM): < 0.0316 µM
- IC50 (second compound 0.316 µM): < 0.0316 µM
- IC50 (second compound 1 µM): < 0.0316 µM
- viability, T/C (second compound 0.00316 µM, first compound 0.0316 µM): 69.7%
- viability, T/C (second compound 0.00316 µM, first compound 0.1 µM): 67%
- viability, T/C (second compound 0.00316 µM, first compound 0.316 µM): 78.8%
- viability, T/C (second compound 0.00316 µM, first compound 1 µM): 78.8%
- viability, T/C (second compound 0.00316 µM, first compound 3.16 µM): 82.3%
- viability, T/C (second compound 0.00316 µM, first compound 10 µM): 74%
- viability, T/C (second compound 0.01 µM, first compound 0.0316 µM): 57.3%
- viability, T/C (second compound 0.01 µM, first compound 0.1 µM): 60.4%
- viability, T/C (second compound 0.01 µM, first compound 0.316 µM): 59.9%
- viability, T/C (second compound 0.01 µM, first compound 1 µM): 56.1%
- viability, T/C (second compound 0.01 µM, first compound 3.16 µM): 54.6%
- viability, T/C (second compound 0.01 µM, first compound 10 µM): 54.8%
- viability, T/C [1]: 35.7%
- viability, T/C [2]: 36.3%
- viability, T/C [3]: 41%
- viability, T/C [4]: 33.6%
- viability, T/C [5]: 37.6%
- viability, T/C [6]: 37.2%
- viability, T/C [7]: 23%
- viability, T/C [8]: 21.4%
- viability, T/C [9]: 21.5%
- viability, T/C [10]: 24.5%
- viability, T/C [11]: 22.6%
- viability, T/C [12]: 22.9%
- viability, T/C [13]: 4.78%
- viability, T/C [14]: 4.57%
- viability, T/C [15]: 5.76%
- viability, T/C [16]: 6.82%
- viability, T/C [17]: 4.57%
- viability, T/C [18]: 5.74%
- viability, T/C [19]: 1.37%
- viability, T/C [20]: 1.18%
- viability, T/C [21]: 1.28%
- viability, T/C [22]: 1.44%
- viability, T/C [23]: 1.61%
- viability, T/C [24]: 1.51%
